Laboratory results reported in ChEMBL document CHEMBL1201862, “PubChem BioAssay data set” (2004).
Active and inactive are the calls of the source.

Experiments:
[1] = C. albicans growth with fluconazole, confirmation, fluorescence, retest (AID 2467); format: functional, cell-based
[2] = HepG2 cell cytotoxicity, dose response, cytotoxicity control for non-replicating M. tuberculosis project (AID 489018); format: functional; conditions: Mycobacterium tuberculosis
Estrogen receptor = target: T1, Estrogen receptor (Homo sapiens, UniProt P03372);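 note: potency for inhibiting coactivator peptide recruitment to the receptor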
T1 sequence (P03372 whole entry): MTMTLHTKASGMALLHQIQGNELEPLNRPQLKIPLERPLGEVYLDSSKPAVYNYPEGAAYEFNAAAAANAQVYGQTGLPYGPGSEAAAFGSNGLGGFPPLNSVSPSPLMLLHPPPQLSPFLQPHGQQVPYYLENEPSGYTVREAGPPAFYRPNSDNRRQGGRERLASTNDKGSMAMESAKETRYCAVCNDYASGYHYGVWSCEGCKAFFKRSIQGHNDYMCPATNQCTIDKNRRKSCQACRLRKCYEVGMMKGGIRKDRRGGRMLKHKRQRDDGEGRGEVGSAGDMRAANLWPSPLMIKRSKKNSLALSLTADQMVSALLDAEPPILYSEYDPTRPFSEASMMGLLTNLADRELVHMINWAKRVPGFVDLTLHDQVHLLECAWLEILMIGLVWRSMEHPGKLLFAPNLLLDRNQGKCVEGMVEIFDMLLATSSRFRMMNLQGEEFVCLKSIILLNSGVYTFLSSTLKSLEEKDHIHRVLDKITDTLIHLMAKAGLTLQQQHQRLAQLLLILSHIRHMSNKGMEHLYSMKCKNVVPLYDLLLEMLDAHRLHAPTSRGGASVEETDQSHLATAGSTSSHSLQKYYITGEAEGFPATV

[3] = Vero E6 cell cytotoxicity, dose response, cytotoxicity control for non-replicating M. tuberculosis project, secondary assay (AID 492998); format: functional, VeroE6; conditions: Vero C1008
[4] = THP-1 cell cytotoxicity, dose response, cytotoxicity control for non-replicating M. tuberculosis project (AID 489025); format: functional
[5] = NIH-3T3 fibroblast cytotoxicity, dose response, cytotoxicity control, cell-based, fluorescence, Alamar Blue, secondary assay (AID 2327); format: functional;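 note: NIH-3T3 mouse fibroblasts cultured with fluconazole at 8 µg/mL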
[6] = target: Dual specificity protein phosphatase 3 (Homo sapiens, UniProt P51452); experiment: SAR VHR1 Fluorescent Assay for In Vitro dose response studies Set 3. [Related pubchem assays (depositor defined):AID1654, AID1661, AID1878]; format: functional
Chain of Dual specificity protein phosphatase 3 (P51452 whole entry): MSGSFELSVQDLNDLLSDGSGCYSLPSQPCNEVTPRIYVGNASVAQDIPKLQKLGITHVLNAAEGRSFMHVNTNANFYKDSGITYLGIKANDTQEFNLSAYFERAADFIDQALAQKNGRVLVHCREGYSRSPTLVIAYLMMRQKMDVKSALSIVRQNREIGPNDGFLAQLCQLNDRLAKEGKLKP

cells [7] = format: functional
[8] = test system: Streptococcus sp. 'group A'; experiment: growth inhibition of control SK(-) GAS strain, dose response, counter-screen for streptokinase expression inhibitor project, luminescence, kanamycin, BacTiterGlo, confirmation (AID 1900); format: functional, organism-based
Streptococcus = experiment: Group A Streptococcus viability loss, dose response, counter-screen for streptokinase expression inhibitor project, luminescence, BacTiterGlo (AID 1915); format: functional, organism-based;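 note: potency for reduction of bacterial viability or growth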
Escherichia coli = experiment: microbe, parasite or virus in culture
BJ [9] = experiment: cytotoxicity toward BJ-TERT-LT-ST fibroblasts, dose response, cell-based, RAS-independent, luminescence (AID 1935); format: functional; conditions: Homo sapiens;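 note: BJ fibroblasts immortalized with TERT plus LT and ST oncogenes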
BJ [10] = experiment: cells; format: functional, cell-based; conditions: Homo sapiens
BJ [11] = experiment: cytotoxicity toward BJ-TERT fibroblasts, dose response, cell-based, RAS-independent, luminescence (AID 1933); format: functional; conditions: Homo sapiens
[12] = cytotoxicity toward DRD oncogenic fibroblasts, dose response, cell-based, non-viral oncogenic, luminescence (AID 1934); format: functional; conditions: Homo sapiens
[13] = Luminescence Cell-Based Dose Retest to Confirm Inhibitors of Cancer Stem Cells. [Related pubchem assays (depositor defined):AID2717, AID2721]; format: functional; conditions: Homo sapiens
Cytochrome P450 1A2 = target: T2, Cytochrome P450 1A2 (Homo sapiens, UniProt P05177);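 note: PubChem cytochrome P450 panel assay, CYP1A2 panel member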
T2 sequence (P05177 whole entry): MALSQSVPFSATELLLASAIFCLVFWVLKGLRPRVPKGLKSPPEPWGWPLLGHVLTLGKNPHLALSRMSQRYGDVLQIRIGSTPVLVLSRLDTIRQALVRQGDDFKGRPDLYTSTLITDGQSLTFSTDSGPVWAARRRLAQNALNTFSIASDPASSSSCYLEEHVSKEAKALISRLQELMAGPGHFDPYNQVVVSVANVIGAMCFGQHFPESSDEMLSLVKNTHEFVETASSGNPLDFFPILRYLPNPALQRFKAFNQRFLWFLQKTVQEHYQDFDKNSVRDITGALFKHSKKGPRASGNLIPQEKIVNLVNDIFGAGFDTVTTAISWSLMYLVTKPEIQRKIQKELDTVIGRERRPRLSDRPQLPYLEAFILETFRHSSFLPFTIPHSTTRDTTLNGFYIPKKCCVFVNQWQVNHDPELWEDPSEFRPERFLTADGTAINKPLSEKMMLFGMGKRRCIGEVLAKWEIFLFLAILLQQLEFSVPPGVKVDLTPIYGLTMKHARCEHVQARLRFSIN

BJ [14] = experiment: cytotoxicity toward Ras-transformed BJeLR fibroblasts, dose response, cell-based, alamar blue fluorescence, cherrypicked samples (AID 2631); format: functional; conditions: Homo sapiens;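 note: confirmatory dose-response assay in RAS-dependent BJ fibroblasts engineered with TERT, LT and ST, with cytotoxicity read by fluorescence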
Jurkat [15] = experiment: antigen receptor-induced NF-kB inhibitors, dose response, Jurkat, luciferase reporter, luminescence, B- and T-cell (AID 489004); format: functional, cell-based; conditions: Homo sapiens;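 note: NF-kB luciferase reporter Jurkat cells stimulated with PMA plus ionomycin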
[16] = target: Heat shock protein HSP 90-alpha (Homo sapiens, UniProt P07900); format: functional, organism-based
Streptokinase A = target: T3, Streptokinase A (Streptococcus pyogenes serotype M1, UniProt P10520); experiment: S. pyogenes streptokinase expression inhibitors, potency, dose response, plasminogen activation absorbance, OD405 (AID 1914); format: functional, Streptococcus pyogenes M1 GAS;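 note: secreted streptokinase activity via plasminogen activation per viability signal from cell pellet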
T3 sequence (P10520 whole entry): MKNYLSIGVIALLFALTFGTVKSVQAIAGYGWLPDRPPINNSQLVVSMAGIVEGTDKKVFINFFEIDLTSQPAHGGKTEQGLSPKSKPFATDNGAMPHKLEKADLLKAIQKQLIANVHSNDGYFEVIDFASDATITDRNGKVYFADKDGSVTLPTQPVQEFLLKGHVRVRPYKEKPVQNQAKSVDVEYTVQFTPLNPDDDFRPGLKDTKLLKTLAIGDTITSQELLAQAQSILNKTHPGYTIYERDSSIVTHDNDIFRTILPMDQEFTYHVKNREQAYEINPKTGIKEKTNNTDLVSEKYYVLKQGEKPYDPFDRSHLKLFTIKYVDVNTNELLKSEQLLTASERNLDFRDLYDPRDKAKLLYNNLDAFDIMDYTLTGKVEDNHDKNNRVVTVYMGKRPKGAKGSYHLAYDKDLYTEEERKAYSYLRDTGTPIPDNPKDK

INS1 = experiment: beta cell apoptosis inhibitors, cytokine rescue, dose response, luminescence, retest (AID 449756); format: functional, cell-based; conditions: Rattus norvegicus;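 note: cell death triggered by IL-1 beta plus TNF-alpha plus IFN-gamma mixture; protective hits raise ATP signal compared with cytokine alone wells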
Galanin receptor type 3 = Galanin receptor type 3 (Homo sapiens, UniProt O60755); experiment: Fluorescence-based cell-based primary high throughput dose response assay to identify antagonists of the Galanin Receptor 3 (GalR3).; format: functional
Chain of Galanin receptor type 3 (O60755 whole entry): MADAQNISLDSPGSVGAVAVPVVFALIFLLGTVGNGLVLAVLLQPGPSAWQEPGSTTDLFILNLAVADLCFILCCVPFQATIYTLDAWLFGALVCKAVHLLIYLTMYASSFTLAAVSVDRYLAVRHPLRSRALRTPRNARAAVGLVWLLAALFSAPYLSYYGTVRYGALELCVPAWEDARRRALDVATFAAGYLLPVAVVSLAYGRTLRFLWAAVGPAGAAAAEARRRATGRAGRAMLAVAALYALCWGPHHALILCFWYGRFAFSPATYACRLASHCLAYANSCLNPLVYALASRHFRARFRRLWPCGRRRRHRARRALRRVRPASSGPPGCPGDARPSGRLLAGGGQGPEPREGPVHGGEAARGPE

[17] = target: T4, DNA repair protein RAD52 homolog (Homo sapiens, UniProt P43351); format: functional, biochemical
T4 sequence (P43351 whole entry): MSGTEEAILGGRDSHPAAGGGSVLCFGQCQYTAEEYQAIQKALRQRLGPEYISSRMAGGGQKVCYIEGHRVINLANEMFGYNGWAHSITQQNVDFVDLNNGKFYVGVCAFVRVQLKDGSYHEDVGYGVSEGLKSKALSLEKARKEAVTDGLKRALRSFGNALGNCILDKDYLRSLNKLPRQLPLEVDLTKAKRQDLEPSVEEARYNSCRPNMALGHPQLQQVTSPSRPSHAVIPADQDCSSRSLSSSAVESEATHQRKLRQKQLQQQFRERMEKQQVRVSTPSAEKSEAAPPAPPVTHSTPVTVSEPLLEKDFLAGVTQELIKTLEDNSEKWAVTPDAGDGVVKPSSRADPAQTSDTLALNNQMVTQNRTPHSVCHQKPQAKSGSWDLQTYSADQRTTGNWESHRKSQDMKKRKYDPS

[18] = cytotoxicity in HEK-293T NF-kB-Luc cells, dose response, cytotoxicity control for B/T-cell NF-kB inhibitor project, cell-based, uHTS hits (AID 489019); format: functional;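 note: IC50 reflects cytotoxicity as loss of cell viability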
cells [19] = format: functional, cell-based; conditions: HEK-CNG
Paired box protein Pax-8 = Paired box protein Pax-8 (Homo sapiens, UniProt Q06710); experiment: inhibitors of PAX8-driven TPO luciferase reporter, dose response, RMG-I cells, cherry-pick (AID 687027); format: functional, cell-based;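 note: luciferase reporter driven by Pax8 target thyroperoxidase promoter measured by SteadyGlo luminescence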
Chain of Paired box protein Pax-8 (Q06710 whole entry): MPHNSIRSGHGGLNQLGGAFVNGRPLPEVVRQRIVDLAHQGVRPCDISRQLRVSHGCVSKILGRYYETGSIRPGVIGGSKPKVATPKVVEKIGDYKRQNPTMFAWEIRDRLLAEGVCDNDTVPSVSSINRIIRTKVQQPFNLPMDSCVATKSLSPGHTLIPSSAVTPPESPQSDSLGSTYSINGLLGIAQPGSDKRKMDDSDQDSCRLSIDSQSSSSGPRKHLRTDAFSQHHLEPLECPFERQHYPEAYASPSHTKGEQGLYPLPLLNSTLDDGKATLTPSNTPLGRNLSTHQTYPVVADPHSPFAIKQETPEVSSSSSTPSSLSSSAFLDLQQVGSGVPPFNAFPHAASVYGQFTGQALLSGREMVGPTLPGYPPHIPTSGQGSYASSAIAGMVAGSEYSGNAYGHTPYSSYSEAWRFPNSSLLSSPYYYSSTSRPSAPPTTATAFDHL

[20] = target: T5, High affinity choline transporter 1 (Homo sapiens, UniProt Q9GZV3); experiment: CHT inhibitors, dose response, cell-based, 5-point CRC, membrane potential dye (AID 504840); format: functional
T5 sequence (Q9GZV3 whole entry): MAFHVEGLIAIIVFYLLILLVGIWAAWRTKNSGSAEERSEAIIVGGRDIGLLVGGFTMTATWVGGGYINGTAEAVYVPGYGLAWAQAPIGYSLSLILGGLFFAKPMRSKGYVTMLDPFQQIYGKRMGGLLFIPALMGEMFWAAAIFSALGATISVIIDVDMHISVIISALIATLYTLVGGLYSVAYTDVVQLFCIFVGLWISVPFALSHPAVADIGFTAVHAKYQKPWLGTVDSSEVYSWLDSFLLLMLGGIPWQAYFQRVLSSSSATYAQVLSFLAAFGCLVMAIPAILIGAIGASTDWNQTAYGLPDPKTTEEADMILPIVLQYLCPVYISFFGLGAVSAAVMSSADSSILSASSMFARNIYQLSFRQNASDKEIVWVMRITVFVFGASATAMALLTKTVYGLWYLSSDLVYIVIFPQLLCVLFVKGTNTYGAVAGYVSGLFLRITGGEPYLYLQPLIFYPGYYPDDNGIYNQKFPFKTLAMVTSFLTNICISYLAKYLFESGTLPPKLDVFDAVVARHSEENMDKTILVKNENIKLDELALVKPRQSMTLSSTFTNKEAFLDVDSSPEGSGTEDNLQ

[21] = cytotoxicity in HMLE control line with eGFP shRNA, dose response, counter-screen for HMLE_sh_ECad selective toxicity project, cell-based, HMLE_sh_eGFP, luminescence (AID 463074); format: functional, Homo sapiens;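 note: HMLE human mammary epithelial cells expressing control shRNA against eGFP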
HEK293 [22] = experiment: SAR Analysis of small molecule inhibitors of B-cell specific antigen receptor-induced NF-kB activation in a HEK-293T cell line using a luminescence assay - Set 2. [Related pubchem assays (depositor defined):AID435022, AID435025, AID489021]; format: functional, cell-based; conditions: Homo sapiens
HEK293 [23] = experiment: cytotoxicity in HEK293T NF-kB-Luc cells, SAR follow-up, cytotoxicity control for NF-kB activator project, cell-based, resazurin fluorescence (AID 493251); format: functional; conditions: Homo sapiens
Jurkat [24] = experiment: SAR Analysis of small molecule inhibitors of […] specific antigen receptor-induced NF-kB activation in a Jurkat cell line using a luminescence assay - Set 3. [Related pubchem assays (depositor defined):AID435022, AID435025, AID465]; format: functional, cell-based; conditions: Homo sapiens

## COc1cccc2sc(Nc3nnc(-c4ccc(F)cc4)o3)nc12
[1]
  EC50: 1.72 µM (active)
[2]
  CC50: > 20 µM (active)
Estrogen receptor
  IC50: 25 µM (active)
[3]
  CC50: 9.26 µM (active)
[4]
  CC50: 14.5 µM (active)
[5]
  EC50: > 160 µM (inconclusive)
[6]
  IC50: 7.3 µM (active)
Cells [7]
  IC50: 15.3 µM (active)
[8]
  EC50: 0.29 µM (active)
Streptococcus
  EC50: 2.25 µM (active)

## COCCNC(=O)c1cnc2ccc(S(=O)(=O)N3CCc4ccccc43)cc2c1O
Escherichia coli
  AC50: 87.7 µM (active)
BJ [9]
  EC50: > 150 µM (not active)
BJ [10]
  EC50: 7.76 µM (active)
BJ [11]
  EC50: > 150 µM (not active)
[12]
  EC50: 11.5 µM (active)
[13]
  AC50: 2.32 µM (active)

## N[C@H](C(=O)O)c1nnn[nH]1
Cytochrome P450 1A2
  AC50: inconclusive

## CCCCCCCCCCCCn1ccc(=N)cc1
BJ [14]
  EC50: 0.949 µM (active)
Jurkat [15]
  IC50: 0.92 µM (active)
[16]
  AC50: 10.8 µM (active)
Streptokinase A
  EC50: 17.6 µM (active)
INS1
  AC50: 0.293 µM (active)
BJ [9]
  EC50: 5.37 µM (inconclusive)
Galanin receptor type 3
  IC50: 1.28 µM (active)
BJ [10]
  EC50: 2.85 µM (inconclusive)
[17]
  AC50: 14.8 µM (active)
[18]
  IC50: 66.1 µM (inactive)
BJ [11]
  EC50: 2.72 µM (active)
[12]
  EC50: 8.01 µM (active)
Cells [19]
  EC50: > 29.9 µM (inactive)
[8]
  EC50: 3.09 µM (active)
Streptococcus
  EC50: 10.3 µM (active)
Paired box protein Pax-8
  AC50: 3.74 µM (active)

## COc1ccc(CN(C)c2ncnc3sccc23)c(OC)c1OC
[20]
  IC50: 13.8 µM (active)
[21]
  AC50: 27.4 µM (active)
[13]
  AC50: 15.8 µM (active)

## CC(C)(C)c1ccc(-c2noc(CCC(=O)Nc3ccccc3)n2)cc1
HEK293 [22]
  IC50: 0.23 µM (active)
HEK293 [23]
  IC50: > 80 µM (inactive)
Jurkat [24]
  IC50: 0.473 µM (active)
